Assay results as given in US20050130978A1, “Novel crystal of quinoxalinedione derivative anhydride” (priority 2002, published 2005).

Assays:
[1] = cited from earlier work
AMPA receptor = conditions: tautomer, salt, hydrate or solvate; Patent Reference 1; cited from earlier work
audiogenic seizure = conditions: DBA/2 mouse; tautomer, salt, hydrate or solvate; Patent Reference 1; cited from earlier work
[2] = test system: kainic acid neurotoxicity; conditions: tautomer, salt, hydrate or solvate; Patent Reference 1; cited from earlier work
[3] = Hygroscopicity test (time course weight changes under controlled relative humidity at 25° C.); assay type: physicochemical; parameters: Time course weight changes: unit not given here; conditions: for Hygroscopicity: ˜0% to 93% RH, up to 7 days
Protocol: About 1 g each of the compound (I) and the compound (II) of anhydride compound A were weighed accurately in weighing bottles (seven) of known weight, then stored under the following conditions at 25° C., and time course weight changes were measured.
RH herein means relative humidity.

[4] = Storage stability of the bulk; assay type: physicochemical; conditions: should be refrigerated to ensure stability
cerebral infarction = conditions: focal cerebral ischemia model; Non-Patent References 1 and 2; cited from earlier work
[5] = ˜0% RH (silica gel), 25° C., Day 1
[6] = ˜0% RH (silica gel), 25° C., Day 2
[7] = ˜0% RH (silica gel), 25° C., Day 4
[8] = ˜0% RH (silica gel), 25° C., Day 7

SMILES | Stability against humidity [3] | Time course weight changes ([3]; 33% RH, 25° C., Day 1) | Time course weight changes ([3]; 33% RH, 25° C., Day 2) | Time course weight changes ([3]; 33% RH, 25° C., Day 4) | Time course weight changes ([3]; 33% RH, 25° C., Day 7) | Time course weight changes ([3]; 51% RH, 25° C., Day 1) | Time course weight changes ([3]; 51% RH, 25° C., Day 2) | Time course weight changes ([3]; 51% RH, 25° C., Day 4) | Time course weight changes ([3]; 51% RH, 25° C., Day 7) | Time course weight changes ([3]; 63.5% RH, 25° C., Day 1) | Time course weight changes ([3]; 63.5% RH, 25° C., Day 2) | Time course weight changes ([3]; 63.5% RH, 25° C., Day 4) | Time course weight changes ([3]; 63.5% RH, 25° C., Day 7) | Time course weight changes ([3]; 75% RH, 25° C., Day 1) | Time course weight changes ([3]; 75% RH, 25° C., Day 2) | Time course weight changes ([3]; 75% RH, 25° C., Day 4) | Time course weight changes ([3]; 75% RH, 25° C., Day 7) | Time course weight changes ([3]; 84% RH, 25° C., Day 1) | Time course weight changes ([3]; 84% RH, 25° C., Day 2) | Time course weight changes ([3]; 84% RH, 25° C., Day 4) | further results
O=C(O)Cn1c(=O)c(=O)[nH]c2cc([N+](=O)[O-])c(-n3ccnc3)cc21 [compound A, [7-(1H-imidazol-1-yl)-6-nitro-2,3-dioxo-3,4-dihydroquinoxalin-1(2H)-yl]acetic acid] |  |  |  |  |  |  |  |  |  |  |  |  |  |  |  |  |  |  |  |  | Solubility ([1]; Patent Reference 1): excellent solubility; Affinity for the AMPA receptor (AMPA receptor): high affinity; Anticonvulsant effect for audiogenic seizure (audiogenic seizure): potent activities; Inhibitory action against kainic acid neurotoxicity [2]: potent activities
O=C(O)Cn1c(=O)c(=O)[nH]c2cc([N+](=O)[O-])c(-n3ccnc3)cc21 [compound (II), [7-(1H-imidazol-1-yl)-6-nitro-2,3-dioxo-3,4-dihydroquinoxalin-1(2H)-yl]acetic acid] | unstable against humidity | 5.26 | 5.29 | 5.32 | 5.33 | 5.39 | 5.39 | 5.40 | 5.38 | 5.47 | 5.47 | 5.49 | 5.49 | 5.47 | 5.47 | 5.51 | 5.46 | 5.51 | 5.52 | 5.52 | Time course weight changes ([3]; 84% RH, 25° C., Day 7): 5.51; Time course weight changes ([3]; 93% RH, 25° C., Day 1): 5.52; Time course weight changes ([3]; 93% RH, 25° C., Day 2): 5.49; Time course weight changes ([3]; 93% RH, 25° C., Day 4): 5.54; Time course weight changes ([3]; 93% RH, 25° C., Day 7): 5.51; Absorbed water ([3]; after one day, at least 33% RH or more, 25° C.): 1 mol water per mol compound; Time course weight changes [3, 5]: 0.09; Time course weight changes [3, 6]: 0.08; Time course weight changes [3, 7]: 0.07; Time course weight changes [3, 8]: 0.04; Hygroscopicity ([3]; 25° C.): strong hygroscopicity
O=C(O)Cn1c(=O)c(=O)[nH]c2cc([N+](=O)[O-])c(-n3ccnc3)cc21 [compound (I), [7-(1H-imidazol-1-yl)-6-nitro-2,3-dioxo-3,4-dihydroquinoxalin-1(2H)-yl]acetic acid] | excellent stability against humidity | 0.09 | 0.06 | 0.10 | 0.08 | 0.03 | 0.04 | 0.10 | 0.09 | 0.03 | 0.06 | 0.10 | 0.11 | 0.04 | 0.07 | 0.13 | 0.10 | 0.05 | 0.09 | 0.11 | Time course weight changes ([3]; 84% RH, 25° C., Day 7): 0.13; Time course weight changes ([3]; 93% RH, 25° C., Day 1): 0.09; Time course weight changes ([3]; 93% RH, 25° C., Day 2): 0.10; Time course weight changes ([3]; 93% RH, 25° C., Day 4): 0.15; Time course weight changes ([3]; 93% RH, 25° C., Day 7): 0.13; Time course weight changes [3, 5]: 0.03; Time course weight changes [3, 6]: −0.01; Time course weight changes [3, 7]: 0.02; Time course weight changes [3, 8]: 0.01; Hygroscopicity ([3]; 25° C.): stable under any relative humidity conditions almost without showing hygroscopicity
O=C(O)Cn1c(=O)c(=O)[nH]c2cc([N+](=O)[O-])c(-n3ccnc3)cc21 [1 hydrate of the compound A, [7-(1H-imidazol-1-yl)-6-nitro-2,3-dioxo-3,4-dihydroquinoxalin-1(2H)-yl]acetic acid] |  |  |  |  |  |  |  |  |  |  |  |  |  |  |  |  |  |  |  |  | Water-solubility ([1]; Non-Patent References 1 and 2): high water-solubility; Storage stability (impurities) [4]: may increase impurities depending on storage condition; Reducing effect on the volume of cerebral infarction (cerebral infarction): excellent reducing effect
